Target: T1, human NAPE-PLD (Homo sapiens, UniProt Q6IQ20)
T1 construct: Full length human cDNA NAPE-PLD was obtained from Natsuo Ueda; made in house; host or cells: HEK293T cells, transient transfection (pcDNA3.1); membrane fraction used
Assay: In vitro NAPE-PLD activity assay
Type: biochemical
Conditions: membrane protein fraction of HEK293T cells overexpressing human NAPE-PLD; substrate PED6 1 µM; 30 minutes preincubation at 37 °C
Experimental: Full length human cDNA NAPE-PLD was obtained from Natsuo Ueda^1 and cloned into mammalian expression vector pcDNA3.1, containing a C-terminal Flag-tag and genes for ampicillin and neomycin resistance. All plasmids were grown in XL-10 Z-competent cells and prepped (Maxi Prep, Qiagen). Sequence analysis for the confirmation of the sequences was performed at the Leiden Genome Technology Centre.
HEK293T were cultured at 37 °C and 7% CO2 in DMEM (Sigma Aldrich, D6546) with glutamax, penicillin (100 µg/ml), streptomycin (100 µg/ml) and 10% New Born Calf Serum iron supplemented (Hyclone SH30072.03). Cells were passaged twice a week to appropriate confluence.
24 hours before transfection 10^7 cells are seeded on a 15 cm dish. Two hours before transfection medium is refreshed, low volume. Transfection is performed with PEI in a ratio of 3:1 with human NAPE-PLD or Mock pcDNA3.1 Neo, 20 µg per dish. Medium is refreshed after 24 hours and cells are harvested after 72 hours.
Cell pellets are re-suspended in lysis buffer: 20 mM Hepes, 2 mM DTT, 0.25 M sucrose, 1 mM MgCl2, 2.5 U/ml benzonase and incubated 30 minutes on ice. The cytosolic fraction (supernatant) is separated from the membranes by ultra-centrifugation (32000 rpm for 30 minutes 100,000g). The pellet is resuspended in storage buffer: 20 mM Hepes, 2 mM DTT (membrane fraction). All samples are stored at -80°C. Enzyme concentrations are determined using a Bradford assay.
The NAPE-PLD activity assay is based on a previously reported method with small alterations.^2 The membrane protein fraction from transient overexpression of human NAPE-PLD in HEK293T cells was diluted to 0.4 mg/ml in assay buffer: 50 mM Tris-HCl (pH 7.5), 0.02% Triton X-100, 150 mM NaCl. The substrate PED6 (Invitrogen) 1 mM stock was consecutively diluted in DMSO (10x) and in assay buffer (10x) to make a 10 µM working solution. […] The assay is performed in a dark Greiner 96 wells plate, end volume 100 µl. The compound or DMSO is incubated with membrane protein lysate (final concentration 0.04 mg/ml) for 30 minutes at 37 °C. […] Mock lysate with DMSO is used for background substraction. IC50 curves are generated used Graphpad Prism v6.

T1 sequence (Q6IQ20 whole entry): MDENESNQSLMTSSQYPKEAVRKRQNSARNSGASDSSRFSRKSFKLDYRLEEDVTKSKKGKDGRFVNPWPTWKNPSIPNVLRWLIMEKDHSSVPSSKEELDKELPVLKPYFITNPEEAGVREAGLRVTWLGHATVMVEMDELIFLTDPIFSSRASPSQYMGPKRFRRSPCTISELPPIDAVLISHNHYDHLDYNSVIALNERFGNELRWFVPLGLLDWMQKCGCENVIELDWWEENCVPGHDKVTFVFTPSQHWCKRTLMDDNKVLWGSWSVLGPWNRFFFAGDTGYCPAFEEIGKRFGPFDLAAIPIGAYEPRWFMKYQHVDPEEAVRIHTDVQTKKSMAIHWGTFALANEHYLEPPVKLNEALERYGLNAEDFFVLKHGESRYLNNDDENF

Compound | IC50
CN(CCc1ccccc1)c1cc(C(=O)NCC2CC2)nc(N(C)CCc2ccccc2)n1 [Example 27, N-(cyclopropylmethyl)-2,6-bis(methyl(phenethyl)amino)pyrimidine-4-carboxamide] | 155 nM
CN(CCc1ccccc1)c1nc(C(=O)NC2CC2)cc(N2CCOCC2)n1 [Example 13, N-cyclopropyl-2-(methyl (phenethyl)amino)-6-morpholinopyrimidine-4-carboxamide] | 3720 nM
CN(CCc1ccccc1)c1nc(C(=O)NCC2CC2)cc(N2CCSCC2)n1 [Example 5, N-(cyclopropylmethyl)-2-(methyl(phenethyl)amino)-6-thiomorpholinopyrimidine-4-carboxamide] | 2630 nM
CN(CCc1ccccc1)c1nc(C(=O)NCC2CC2)cc(N2CC[C@H](O)C2)n1 [Example 39, (S)-N-(cyclopropylmethyl)-6-(3-hydroxypyrrolidin-1-yl)-2-(methyl(phenethyl)amino)pyrimidine-4-carboxamide] | 234 nM
CN(CCc1ccccc1)c1nc(C(=O)NCC2CC2)cc(N2CC[C@@H](O)C2)n1 [Example 38, (R)-N-(cyclopropylmethyl)-6-(3-hydroxypyrrolidin-1-yl)-2-(methyl(phenethyl)amino)pyrimidine-4-carboxamide] | 302 nM
O=C(NCC1CC1)c1cc(N2CCOCC2)nc(N2CCN(Cc3ccccc3)C(c3ccccc3)C2)n1 (stereo not shown) [Example 35, 2-(4-benzyl-3-phenylpiperazin-1-yl)-N-(cyclopropylmethyl)-6-morpholinopyrimidine-4-carboxamide] | 1000 nM
CC(C)CNC(=O)c1cc(N2CCOCC2)nc(N(C)CCc2ccccc2)n1 [Example 6, N-isobutyl-2-(methyl(phenethyl)amino)-6-morpholinopyrimidine-4-carboxamide] | 7080 nM
CN(CCCCc1ccccc1)c1nc(C(=O)NCC2CC2)cc(N2CCOCC2)n1 [Example 60, N-(cyclopropylmethyl)-2-(methyl(4-phenylbutyl)amino)-6-morpholinopyrimidine-4-carboxamide] | 10000 nM
C#CCNC(=O)c1cc(N2CC[C@H](O)C2)nc(N2CCN(C(=O)c3ccc(C4(C(F)(F)F)N=N4)cc3)CC2)n1 [Example 45, (S)-6-(3-hydroxypyrrolidin-1-yl)-N-(prop-2-yn-1-yl)-2-(4-(4-(3-(trifluoromethyl)-3H-diazirin-3-yl)benzoyl)piperazin-1-yl)pyrimidine-4-carboxamide] | 617 nM
CN(CCc1cccnc1)c1nc(C(=O)NCC2CC2)cc(N2CCOCC2)n1 [Example 80, N-(cyclopropylmethyl)-2-(methyl(2-(pyridin-3-yl)ethyl)amino)-6-morpholinopyrimidine-4-carboxamide] | 10700 nM
CN(CCc1ccccc1)c1cc(C(=O)NCC2CC2)nc(N2CCOCC2)n1 [Example 55, N-(cyclopropylmethyl)-6-(methyl(phenethyl)amino)-2-morpholinopyrimidine-4-carboxamide] | 4070 nM
O=C(NCC1CC1)c1cc(N2CCOCC2)nc(N(CCc2ccccc2)C2CC2)n1 [Example 70, 2-(cyclopropyl(phenethyl)amino)-N-(cyclopropylmethyl)-6-morpholinopyrimidine-4-carboxamide] | 1100 nM
CN(CCc1ccccc1)c1cc(C(=O)NCC2CC2)cc(N2CCOCC2)n1 [Example 75, N-(cyclopropylmethyl)-2-(methyl(phenethyl)amino)-6-morpholino isonicotinamide] | 1450 nM
O=C(NCC1CC1)c1cc(N2CCOCC2)nc(N(CCc2ccccc2)c2ccccc2)n1 [Example 77, N-(cyclopropylmethyl)-6-morpholino-2-(phenethyl(phenyl)amino)pyrimidine-4-carboxamide] | 501 nM
CN(CCc1cccc(Cl)c1)c1nc(C(=O)NCC2CC2)cc(N2CCOCC2)n1 [Example 66, 2-((3-chlorophenethyl)(methyl)amino)-N-(cyclopropylmethyl)-6-morpholinopyrimidine-4-carboxamide] | 2450 nM
CN(CCc1ccccc1)c1nc(C(=O)NCC2CC2)cc(N2CCC2)n1 [Example 25, N-(cyclopropylmethyl)-2-(methyl(phenethyl)amino)-6-(azetidin-1-yl)pyrimidine-4-carboxamide] | 427 nM
CN(Cc1ccccc1)c1nc(C(=O)NCC2CC2)cc(N2CCOCC2)n1 [Example 48, 2-(benzyl(methyl)amino)-N-(cyclopropylmethyl)-6-morpholinopyrimidine-4-carboxamide] | 9120 nM
Cc1ccc(CCN(C)c2nc(C(=O)NCC3CC3)cc(N3CCOCC3)n2)cc1 [Example 69, N-(cyclopropylmethyl)-2-(methyl(4-methylphenethyl)amino)-6-morpholinopyrimidine-4-carboxamide] | 1820 nM
CN(CCc1ccccc1)c1nc(C(=O)NCCO)cc(N2CCOCC2)n1 [Example 36, N-(2-hydroxyethyl)-2-(methyl(phenethyl)amino)-6-morpholinopyrimidine-4-carboxamide] | 5010 nM

Source: patent EP3575287A1, “INHIBITORS OF N-ACYLPHOSPHATIDYLETHANOLAMINE PHOSPHOLIPASE D (NAPE-PLD)” (Universiteit Leiden, priority 2018, dated 2019)
